Measurements published in US11098063B2, “Diazabicyclic substituted imidazopyrimidines and their use for the treatment of breathing disorders” (Bayer Aktiengesellschaft, priority 2017, dated 2021).

Key:
[1] = biological target: human TASK-1 (Homo sapiens (Human), UniProt O14649); test: Inhibition of recombinant TASK-1 in stably transfected CHO cells (voltage-sensitive dye, KCl depolarization); type: cell-based; conditions: depolarization by 40 mM potassium chloride
Protocol: (§1) B-2. Inhibition of Recombinant TASK-1 and TASK-3 In Vitro
(§2) The investigations on the inhibition of the recombinant TASK-1 and TASK-3 channels were conducted using stably transfected CHO cells. The compounds according to the invention were tested in this case by application of 40 mM potassium chloride in the presence of a voltage-sensitive dye according to the method described in detail in the following references [Whiteaker et al., Validation of FLIPR membrane potential dye for high-throughput screening of potassium channel modulators, J. Biomol. Screen. 6 (5), 305-312 (2001); Molecular Devices FLIPR Application Note: Measuring membrane potential using the FLIPR® membrane potential assay kit on Fluorometric Imaging Plate Reader (FLIPR®) systems, http://www.moleculardevices.com/reagents-supplies/assay-kits/ion-channels/flipr-membrane-potential-assay-kits]. The activity of the test substances was determined as their ability to inhibit a depolarization induced in the recombinant cells by 40 mM potassium chloride. The concentration which can block half of this depolarization is referred to as IC50.

[2] = biological target: human TASK-3 (Homo sapiens (Human), UniProt Q9NPC2); test: Inhibition of recombinant TASK-3 in stably transfected CHO cells (voltage-sensitive dye, KCl depolarization); type: cell-based; conditions: depolarization by 40 mM potassium chloride
Chain of human TASK-3 (Q9NPC2 whole entry): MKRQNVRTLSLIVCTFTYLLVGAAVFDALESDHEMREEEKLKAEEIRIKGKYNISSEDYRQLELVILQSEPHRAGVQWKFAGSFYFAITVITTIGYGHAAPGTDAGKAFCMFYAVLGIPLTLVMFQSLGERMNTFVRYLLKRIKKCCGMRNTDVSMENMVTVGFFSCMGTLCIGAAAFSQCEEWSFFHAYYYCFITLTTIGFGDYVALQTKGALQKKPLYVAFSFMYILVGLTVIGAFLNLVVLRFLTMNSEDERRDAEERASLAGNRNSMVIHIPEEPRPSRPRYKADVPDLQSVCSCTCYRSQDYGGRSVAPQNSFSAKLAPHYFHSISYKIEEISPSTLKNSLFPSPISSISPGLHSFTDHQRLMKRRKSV
Protocol: as §1, §2

Chain of human TASK-1 (O14649 whole entry): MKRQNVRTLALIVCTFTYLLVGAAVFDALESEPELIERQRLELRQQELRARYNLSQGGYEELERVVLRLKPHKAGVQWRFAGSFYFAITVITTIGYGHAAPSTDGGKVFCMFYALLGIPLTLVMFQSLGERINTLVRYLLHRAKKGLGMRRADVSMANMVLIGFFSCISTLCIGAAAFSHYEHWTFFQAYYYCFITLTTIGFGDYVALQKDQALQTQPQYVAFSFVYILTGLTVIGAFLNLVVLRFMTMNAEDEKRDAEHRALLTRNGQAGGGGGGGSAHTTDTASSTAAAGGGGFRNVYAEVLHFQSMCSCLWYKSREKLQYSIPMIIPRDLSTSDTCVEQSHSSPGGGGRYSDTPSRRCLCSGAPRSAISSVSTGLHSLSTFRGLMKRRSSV

Row | SMILES | IC50 [1] [nM] | IC50 [2] [nM]
1 | CC(C)c1ccc(-c2nc3ncccn3c2CN2CC3CCC2CN3C(=O)OC(C)(C)C)cc1 (racemic) [Example 7, tert-Butyl 5-{[2-(4-isopropylphenyl)imidazo[1,2-a]pyrimidine-3-yl]methyl}-2,5-diazabicyclo[2.2.2]octane-2-carboxylate] | 8600 | 570
2 | CC(c1c(-c2ccc(Cl)cc2)nc2ncccn12)N1CC2CCC(C1)N2C(=O)OC(C)(C)C (racemic) [Example 10, tert-Butyl 3-{1-[2-(4-chlorophenyl)imidazo[1,2-a]pyrimidin-3-yl]ethyl}-3,8-diazabicyclo[3.2.1]octane-8-carboxylate] | 2200 | 130
3 | CC(C)(C)OC(=O)N1CC2CCC1CN2Cc1c(-c2ccc(Cl)cc2)nc2ncccn12 (single isomer, unassigned) [Example 4, tert-Butyl 5-{[2-(4-chlorophenyl)imidazo[1,2-a]pyrimidin-3-yl]methyl}-2,5-diazabicyclo[2.2.2]octane-2-carboxylate] | 470 | 97
4 | CC(C)(C)OC(=O)N1CC2CCC1CN2Cc1c(-c2ccc(Cl)cc2)nc2ncccn12 (single isomer, unassigned) [Example 5, tert-Butyl 5-{[2-(4-chlorophenyl)imidazo[1,2-a]pyrimidin-3-yl]methyl}-2,5-diazabicyclo[2.2.2]octane-2-carboxylate] | 17000 | 1300
5 | COc1ccc(Cl)c(C(=O)N2CC3CCC2CN3Cc2c(-c3ccc(Cl)cc3)nc3ncccn23)n1 (single isomer, unassigned) [Example 23, (3-Chloro-6-methoxypyridin-2-yl)(5-{[2-(4-chlorophenyl)imidazo[1,2-a]pyrimidin-3-yl]methyl}-2,5-diazabicyclo[2.2.2]oct-2-yl)methanone] | 1600 | 100
6 | COc1ccc(F)c(C(=O)N2CC3CCC2CN3Cc2c(-c3ccc(Cl)cc3)nc3ncccn23)n1 (single isomer, unassigned) [Example 24, (5-{[2-(4-Chlorophenyl)imidazo[1,2-a]pyrimidin-3-yl]methyl}-2,5-diazabicyclo[2.2.2]oct-2-yl)(3-fluoro-6-methoxypyridin-2-yl)methanone] | 410 | 102
7 | COc1ccc(C)c(C(=O)N2CC3CCC2CN3Cc2c(-c3ccc(Cl)cc3)nc3ncccn23)n1 (single isomer, unassigned) [Example 25, (5-{[2-(4-Chlorophenyl)imidazo[1,2-a]pyrimidin-3-yl]methyl}-2,5-diazabicyclo[2.2.2]oct-2-yl)(6-methoxy-3-methylpyridin-2-yl)methanone] | 1100 | 71
8 | CC(C)(C)OC(=O)N1C2COCC1CN(Cc1c(-c3ccc(Cl)cc3)nc3ncccn13)C2 [Example 1, tert-Butyl 7-{[2-(4-chlorophenyl)imidazo[1,2-a]pyrimidin-3-yl]methyl}-3-oxa-7,9-diazabicyclo[3.3.1]nonane-9-carboxylate] | 1700 | 400
9 | CC(C)(C)OC(=O)N1C2CCC1CN(Cc1c(-c3ccc(Cl)cc3)nc3ncccn13)C2 [Example 6, tert-Butyl 3-{[2-(4-chlorophenyl)imidazo[1,2-a]pyrimidin-3-yl]methyl}-3,8-diazabicyclo[3.2.1]octane-8-carboxylate] | 1400 | 41
10 | CC(C)(C)OC(=O)N1CC2CCC1CN2Cc1c(-c2ccc(Br)cc2)nc2ncccn12 (centres unmarked) [Example 11] | 2500 | 16
11 | CC(C)(C)OC(=O)N1C2CCC1CN(Cc1c(-c3ccc(Br)cc3)nc3ncccn13)C2 [Example 12] | 220 | 13
12 | COc1cccc(C(=O)N2C3COCC2CN(Cc2c(-c4ccc(Cl)cc4)nc4ncccn24)C3)n1 [Example 13, (7-{[2-(4-Chlorophenyl)imidazo[1,2-a]pyrimidin-3-yl]methyl}-3-oxa-7,9-diazabicyclo[3.3.1]non-9-yl)(6-methoxypyridin-2-yl)methanone] | 1500 | 33
13 | COc1ccc(Cl)c(C(=O)N2C3COCC2CN(Cc2c(-c4ccc(Cl)cc4)nc4ncccn24)C3)n1 [Example 14, (3-Chloro-6-methoxypyridin-2-yl)(7-{[2-(4-chlorophenyl)imidazo[1,2-a]pyrimidin-3-yl]methyl}-3-oxa-7,9-diazabicyclo[3.3.1]non-9-yl)methanone] | 7600 | 170
14 | COc1ccc(F)c(C(=O)N2C3COCC2CN(Cc2c(-c4ccc(Cl)cc4)nc4ncccn24)C3)n1 [Example 15, (7-{[2-(4-Chlorophenyl)imidazo[1,2-a]pyrimidin-3-yl]methyl}-3-oxa-7,9-diazabicyclo[3.3.1]non-9-yl)(3-fluoro-6-methoxypyridin-2-yl)methanone] | 1100 | 19
15 | CSc1cccc(C(=O)N2C3COCC2CN(Cc2c(-c4ccc(Cl)cc4)nc4ncccn24)C3)n1 [Example 16, (7-{[2-(4-Chlorophenyl)imidazo[1,2-a]pyrimidin-3-yl]methyl}-3-oxa-7,9-diazabicyclo[3.3.1]non-9-yl)[6-(methylsulfanyl)pyridin-2-yl]methanone] | 670 | 12
16 | O=C(C1CCCC1)N1C2COCC1CN(Cc1c(-c3ccc(Cl)cc3)nc3ncccn13)C2 [Example 17, (7-{[2-(4-Chlorophenyl)imidazo[1,2-a]pyrimidin-3-yl]methyl}-3-oxa-7,9-diazabicyclo[3.3.1]non-9-yl)(cyclopentyl)methanone] | 1200 | 33
17 | COc1ccc(F)c(C(=O)N2C3COCC2CN(Cc2c(-c4ccc(C(C)C)cc4)nc4ncccn24)C3)n1 [Example 18, (3-Fluoro-6-methoxypyridin-2-yl)(7-{[2-(4-isopropylphenyl)imidazo[1,2-a]pyrimidin-3-yl]methyl}-3-oxa-7,9-diazabicyclo[3.3.1]non-9-yl)methanone] | 910 | 8.6
18 | COc1cccc(C(=O)N2C3CCC2CN(Cc2c(-c4ccc(Cl)cc4)nc4ncccn24)C3)n1 [Example 20, (3-{[2-(4-Chlorophenyl)imidazo[1,2-a]pyrimidin-3-yl]methyl}-3,8-diazabicyclo[3.2.1]oct-8-yl)(6-methoxypyridin-2-yl)methanone] | 160 | 38
19 | COc1ccc(F)c(C(=O)N2C3CCC2CN(Cc2c(-c4ccc(Cl)cc4)nc4ncccn24)C3)n1 [Example 22, (3-{[2-(4-Chlorophenyl)imidazo[1,2-a]pyrimidin-3-yl]methyl}-3,8-diazabicyclo[3.2.1]oct-8-yl)(3-fluoro-6-methoxypyridin-2-yl)methanone] | 340 | 5.2

Row | SMILES | IC50 [1] [nM] | IC50 [2] [nM]
20 | O=C(c1ccccc1F)N1C2COCC1CN(Cc1c(-c3ccc(Cl)cc3)nc3ncccn13)C2 [Example 30] | 3500 | 85
21 | COc1cccc(C(=O)N2C3COCC2CN(Cc2c(-c4ccc(Cl)cc4)nc4ncccn24)C3)c1 [Example 31] | 7100 | 140
22 | O=C(c1ccccc1F)N1C2CCC1CN(Cc1c(-c3ccc(Cl)cc3)nc3ncccn13)C2 [Example 32] | 370 | 29
23 | CSc1cccc(C(=O)N2C3CCC2CN(Cc2c(-c4ccc(Cl)cc4)nc4ncccn24)C3)n1 [Example 33] | 190 | 130
24 | O=C(C1CCCC1)N1C2CCC1CN(Cc1c(-c3ccc(Cl)cc3)nc3ncccn13)C2 [Example 34] | 76 | 29
25 | COc1cccc(C(=O)N2C3CCC2CN(Cc2c(-c4ccc(Cl)cc4)nc4ncccn24)C3)c1 [Example 36] | 310 | 80
26 | O=C(C1CCCC1)N1CC2CCC1CN2Cc1c(-c2ccc(Cl)cc2)nc2ncccn12 (centres unmarked) [Example 37] | 1500 | 140
27 | COc1cccc(C(=O)N2CC3CCC2CN3Cc2c(-c3ccc(Cl)cc3)nc3ncccn23)c1 (centres unmarked) [Example 38] | 9600 | 320
28 | O=C(c1ccccc1F)N1CC2CCC1CN2Cc1c(-c2ccc(Cl)cc2)nc2ncccn12 (centres unmarked) [Example 39] | 1400 | 160
29 | COc1cccc(C(=O)N2CC3CCC2CN3Cc2c(-c3ccc(Cl)cc3)nc3ncccn23)n1 (centres unmarked) [Example 40] | 5700 | 210
30 | O=C(c1ccccc1F)N1CC2CCC1CN2Cc1c(-c2ccc(Cl)cc2)nc2ncccn12 (centres unmarked) [Example 42] | 1000 | 340
31 | COc1cccc(C(=O)N2CC3CCC2CN3Cc2c(-c3ccc(Cl)cc3)nc3ncccn23)c1 (centres unmarked) [Example 43] | 1000 | 320
32 | COc1cccc(C(=O)N2CC3CCC2CN3Cc2c(-c3ccc(Cl)cc3)nc3ncccn23)n1 (centres unmarked) [Example 44] | 1000 | 190
33 | COc1ccc(Cl)c(C(=O)N2CC3CCC2CN3Cc2c(-c3ccc(Cl)cc3)nc3ncccn23)n1 (centres unmarked) [Example 45] | 1800 | 120
34 | O=C(c1ncoc1C1CC1)N1C2COCC1CN(Cc1c(-c3ccc(Cl)cc3)nc3ncccn13)C2 [Example 46] | 7600 | 140
35 | O=C(c1coc(C2CC2)n1)N1C2CCC1CN(Cc1c(-c3ccc(Cl)cc3)nc3ncccn13)C2 [Example 47] | 2800 | 110
36 | Cc1ocnc1C(=O)N1C2CCC1CN(Cc1c(-c3ccc(Cl)cc3)nc3ncccn13)C2 [Example 48] | 400 | 23
37 | CC(C)c1ocnc1C(=O)N1C2CCC1CN(Cc1c(-c3ccc(Cl)cc3)nc3ncccn13)C2 [Example 49] | 260 | 12
